Target: T1, human GR (Homo sapiens, UniProt P04150)
T1 sequence (P04150 1-777): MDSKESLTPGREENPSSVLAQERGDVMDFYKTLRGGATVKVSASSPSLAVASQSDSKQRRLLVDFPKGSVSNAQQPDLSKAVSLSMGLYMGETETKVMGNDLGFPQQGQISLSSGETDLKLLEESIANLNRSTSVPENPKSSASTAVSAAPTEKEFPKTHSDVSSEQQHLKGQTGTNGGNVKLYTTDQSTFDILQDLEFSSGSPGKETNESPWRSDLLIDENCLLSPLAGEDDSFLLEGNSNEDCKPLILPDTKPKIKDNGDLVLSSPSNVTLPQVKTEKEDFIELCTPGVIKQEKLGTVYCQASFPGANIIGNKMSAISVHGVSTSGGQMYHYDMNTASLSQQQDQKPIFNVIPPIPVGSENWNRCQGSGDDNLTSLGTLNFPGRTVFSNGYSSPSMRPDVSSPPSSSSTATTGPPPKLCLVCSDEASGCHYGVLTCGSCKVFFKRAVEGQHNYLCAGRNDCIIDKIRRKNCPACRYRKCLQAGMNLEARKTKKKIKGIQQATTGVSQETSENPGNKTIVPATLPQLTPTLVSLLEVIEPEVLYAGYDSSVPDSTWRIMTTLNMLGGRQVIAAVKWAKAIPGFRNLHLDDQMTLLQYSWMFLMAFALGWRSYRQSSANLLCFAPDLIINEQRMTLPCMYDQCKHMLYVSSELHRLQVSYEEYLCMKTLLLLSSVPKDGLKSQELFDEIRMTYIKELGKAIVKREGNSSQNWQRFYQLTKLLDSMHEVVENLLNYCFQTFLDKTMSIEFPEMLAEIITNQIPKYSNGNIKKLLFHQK
Assay: Trans-Activation Modulation of Glucocorticoid Receptor (GRAMMER), MMTV-LUC reporter gene
Assay type: cell-based
Parameters: endogenous in cells
Conditions: for Emax: A549, read-out: Transactivation A549 Cells GRAMMER Emax (%); for EC50: Table 1, A549 cells, IP = inflection point, read-out: Transactivation A549 Cells GRAMMER IP

Emax	EC50	Compound
37%	261 nM	C[C@]12Cc3cnn(-c4ccc(F)cc4)c3C=C1CC[C@@]2(O)CCc1ccccc1CC(N)=O [Example 107, 2-(2-{2-[(4αS,5R)-1-(4-fluorophenyl)-5-hydroxy-4α-methyl-1,4,4α,5,6,7-hexahydrocyclopenta[f]indazol-5-yl]ethyl}phenyl)acetamide]
32%	205 nM	CN(C)S(=O)(=O)Nc1c(F)cccc1CC[C@]1(O)CCC2=Cc3c(cnn3-c3ccc(F)cc3)C[C@@]21C [Example 113, N′-(2-fluoro-6-{2-[(4αS,5R)-1-(4-fluorophenyl)-5-hydroxy-4α-methyl-1,4,4α,5,6,7-hexahydrocyclopenta[f]indazol-5-yl]ethyl}phenyl)-N,N-dimethylsulfamide]
43%	221 nM	CCS(=O)(=O)Nc1ccccc1CC[C@]1(O)CCC2=Cc3c(cnn3-c3ccc(F)cc3)C[C@@]21C [Example 114, N-(2-{2-[(4αS,5R)-1-(4-fluorophenyl)-5-hydroxy-4α-methyl-1,4,4α,5,6,7-hexahydrocyclopenta[f]indazol-5-yl]ethyl}phenyl)ethanesulfonamide]
55%	137 nM	CN(C)S(=O)(=O)c1ccccc1CC[C@]1(O)CCC2=Cc3c(cnn3-c3ccc(F)cc3)C[C@@]21C [Example 138, 2-{2-[(4αS,5R)-1-(4-fluorophenyl)-5-hydroxy-4α-methyl-1,4,4α,5,6,7-hexahydrocyclopenta[f]indazol-5-yl]ethyl}-N,N-dimethylbenzenesulfonamide]
41%	118 nM	CCS(=O)(=O)c1ccccc1CC[C@]1(O)CCC2=Cc3c(cnn3-c3ccc(F)cc3)C[C@@]21C [Example 143, (4αS,5R)-5-{2-[2-(ethylsulfonyl)phenyl]ethyl}-1-(4-fluorophenyl)-4α-methyl-1,4,4α,5,6,7-hexahydrocyclopenta[f]indazol-5-ol]
40%	268 nM	C[C@]12Cc3cnn(-c4ccc(F)cc4)c3C=C1CC[C@@]2(O)CCc1ccccc1S(=O)(=O)C1CC1 [Example 144, (4αS,5R)-5-{2-[2-(cyclopropylsulfonyl)phenyl]ethyl}-1-(4-fluorophenyl)-4α-methyl-1,4,4α,5,6,7-hexahydrocyclopenta[f]indazol-5-ol]
57%	43 nM	C[C@]12Cc3cnn(-c4ccc(F)cc4)c3C=C1CC[C@@]2(O)CCc1cccc(F)c1CO [Example 148, (4αS,5R)-5-{2-[3-fluoro-2-(hydroxymethyl)phenyl]ethyl}-1-(4-fluorophenyl)-4α-methyl-1,4,4α,5,6,7-hexahydrocyclopenta[f]indazol-5-ol]
43%	170 nM	C[C@]12Cc3cnn(-c4ccc(F)cc4)c3C=C1CC[C@@]2(O)CCc1cccc(F)c1[C@H](N)C(F)(F)F [Example 151, (4αS,5R)-5-(2-{2-[(1S)-1-amino-2,2,2-trifluoroethyl]-3-fluorophenyl}ethyl)-1-(4-fluorophenyl)-4α-methyl-1,4,4α,5,6,7-hexahydrocyclopenta[f]indazol-5-ol]
44%	223 nM	C[C@]12Cc3cnn(-c4ccc(F)cc4)c3C=C1CC[C@@]2(O)CCc1cccc(F)c1[C@@H](N)C(F)(F)F [Example 152, (4αS,5R)-5-(2-{2-[(1R)-1-amino-2,2,2-trifluoroethyl]-3-fluorophenyl}ethyl)-1-(4-fluorophenyl)-4α-methyl-1,4,4α,5,6,7-hexahydrocyclopenta[f]indazol-5-ol]
47%	278 nM	C[C@]12Cc3cnn(-c4ccc(F)cc4)c3C=C1CC[C@@]2(O)CCc1ccccc1C(=O)N1CC(=O)C1 [Example 156, 1-(2-{2-[(4αS,5R)-1-(4-fluorophenyl)-5-hydroxy-4α-methyl-1,4,4α,5,6,7-hexahydrocyclopenta[f]indazol-5-yl]ethyl}benzoyl)azetidin-3-one]
